In brackets after ≈: the same amount, converted by molar mass.
What was measured:
ethanol ulcer = test: inhibitory activity on ethanol ulcer; format: in vivo, SD-strain rats; conditions: rat ethanol ulcer, oral administration of 4 ug/kg
Procedure: An ethanol ulcer test was carried out by the following procedure. SD-strain rats (body weight 200 to 220 g; 7 week old) were fasted for 24 hours, and a solution of the test compound in physiological saline buffered with phosphate buffer at pH 7.5 was orally administered. Thirty minutes after the administration, 75% ethanol was orally administered in a dose of 1 ml/kg. One hour later, the abdomen was incised to isolate the stomach. […] The total of these lengths was […] ulcer index. From this measurement, the inhibition of ulcer formatin by the test compound was calculated, to determine the IC50 value.

indomethacin ulcer = test: inhibitory activity on indomethacin ulcer; format: in vivo, Wister male rats; conditions: rat indomethacin ulcer, oral administration of 40 µg/kg
Procedure: The inhibiting effect on ulcer formation induced by indomethacin was examined by using Wister male rats (7 weeks old, body weight 220 g) which were fasted for 24 hours, except for water, and then subjected to experiment.
The sample compound to be tested was dissolved in a phosphoric acid buffer (pH 7.4) containing 0.9% NaCl and the solution was orally administered to the rats. 30 minutes after the administration, indomethacin was orally administered to the rats at a dose of 20 mg/kg. 5 hours after the administratin of the indomethacin, the rats were killed and the ulcer formation in the stomach was examined by determining the length of the ulcer formation portion under a stereomicroscope. From this measurement, the inhibition of ulcer formation by the sampel compound was calculated to determine the IC50 values.

blood pressure = test: activity on blood pressure, intravenous injection under anesthesia; format: in vivo, male wister rats; conditions: Rattus norvegicus, i.v., dosage which caused a 20% lowering of the mean blood pressure, anesthetized rats
Procedure: The actions of the 5-thiaprostaglandin of the invention on the blood pressure was examined by intravenous injection under anesthesia.
Urehtane (500 mg/kg) and a-chloralose (100 mg/kg) were intraperitoneally administered to male wister rats weighing about 250 g. The rats were anesthetized and fixed in place.
The test compound was dissolved in a small amount of ethanol and diluted with physiological saline to adjust the final ethanol concentration to not more than 5%. The solution was intravenously injected into the rats through a catheter inserted into the femoral vein.
The blood pressure of the rats was measured by a pressure transducer through a catheter inserted into the carotid artery of the rats.
The action of the test compound on the blood pressure was expressed as the dosage (ED20 , ug/kg) of the test compound which caused a 20% lowering of the mean blood pressure before administration of the compound.

platelet aggregation [1] = test: in vitro inhibitory activity of platelet aggregation (ADP-induced, platelet-rich plasma); format: cell-based, Japanese domestic white male rabbits; conditions: Oryctolagus cuniculus; rabbit PRP, 10 µM ADP; minimum concentration which inhibited more than 50% of platelet aggregation; read-out: Inhibition of Platelet in vitro IC50
Procedure: The in vitro platelet aggregation imhibiting activity of the compound of the invention was examined by using rabbits. Blood was withdrawn from the ear vein of Japanese domestic white male rabbits weighing 2.5 to 3.5 kg. A mixture of a 3.8% trisodium citrate solution and the blood in a ratio of 1:9 was centrifuged at a speed of 1000 rpm for 10 minutes. The upper layer was separated as platelet-rich plasma (PRP). The lower layer was further centrifuged at a speed of 2800 rpm for 10 minutes. The upper layer was separated as platelet- poor plasma (PPP). The number of plate lets was adjusted to 6 x 105/µℓ. to 7 x 105/µℓ. by diluting the PRP with PPP. 25 microliters of the test compound prepared as shown below was added with an amount of 25 to 250 microliters of PRP after the adjustment, and the mixture was pre-incubated at 37°C for 2 minutes, and then 10 µM (final) of ADP was added. Changes in transmission were recorded by using an aggregometer.
The drug was dissolved in ethanol to a concentration of 10 mg/ml, and seccussively diluted with phosphate buffer (pH 7.4) prior to use.
The rate of inhibition of platelet aggregation was determined from the following equation. [formula] • T0: the transmittance of the system containing the phosphate buffer, • T : the transmittance of the system to which the test drug was added. […]

platelet aggregation [2] = test: extra vivo inhibitory activity of platelet aggregation after oral administration; format: in vivo, Hartley-strain guinea pigs; conditions: guinea pigs, oral 0.3-3 mg/kg, blood drawn 1 hour after administration, N.E.: no-effect
Procedure: The extra vivo platelet aggregation inhibitory activity of the 5-thiaprostaglandin E1 derivatives of the invention were measured by using guinea pigs. A test drug prepared as a 10% ethanol solution of the compound of the invention in ethanol diluted with 10% ethanol-0.5% Tween 80 in saline were orally administered in a dose of 0.3-3 mg/kg, and as a control 10% ethanol-0.5% Tween 80 in saline was orally administered in a dose of 1 ml/kg to Hartley-strain guinea pigs having a body weight of 350 to 450 g which had been fasted for 17 hours. 1 hour after the administration of the compound, blood was drawn off by carbiac puncture using trisodium citrate so that the ratio of the blood to 3.8% trisodium citrate was 9:1. The blood was centrifuged at a speed of 700 rpm for 10 minutes. The upper layer was separated as platelet-rich plasma (PRP). The lower layer was further centrifuged at a speed of 2800 rpm for 10 minutes. The upper layer was separated as platelet poor plasma (PPP). A 250 microliter amount of the - resulting PRP was taken into an aggregometer cuvette and incubated at 37°C for 2 minutes. […] The aggregation curve was recorded for 5 minutes. The maximum degree of aggregation of platelets within this time period was read, and the rate of inhibition of platelet aggregation was calculated from the following equation. […]

Structure (SMILES): CCCC[C@](C)(O)C/C=C/[C@H]1[C@H](O)CC(=O)[C@@H]1CCSCCCC(=O)OC [Compound of example 6, (16S)-15-deoxy-16-hydroxy-16-methyl-5-thiaprostaglandin E1 methyl ester]
- prevention rate of ulcer generation (ethanol ulcer): about 50%
- preventive rate of ulcer generation (indomethacin ulcer): about 50%
- ED20 (blood pressure): 2.1 µg/kg
- IC50 (platelet aggregation [1]): 60 µg/mL (≈ 150 µM)
- Inhibition of Platelet extra vivo ADP (platelet aggregation [2]; ADP-induced aggregation): N.E.
- Inhibition of Platelet extra vivo collagen (platelet aggregation [2]; collagen-induced aggregation): N.E.
